In patent US20070082880A1 (priority 2005, published 2007):

target: T1, human PKCθ full length enzyme (Homo sapiens, UniProt Q04759); assay: PKCθ IMAP Assay; format: biochemical; conditions: average value when one or more samples were tested; ATP 6 uM, PKCθ 1 nM
T1 construct: human PKCθ full length enzyme (Panvera Catalog No. P2996); purchased Panvera P2996
How it was run: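 Full-length human PKCθ (1 nM final) with 6 uM ATP and 100 nM 5FAM-labelled peptide, 5% DMSO, 3.0 mM DTT in reaction buffer. 25 min at room temperature; IMAP bead binding 20 min, fluorescence polarization read. Compounds 2:1 serially diluted; no-ATP and no-enzyme wells as controls.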

T1 sequence (Q04759 whole entry): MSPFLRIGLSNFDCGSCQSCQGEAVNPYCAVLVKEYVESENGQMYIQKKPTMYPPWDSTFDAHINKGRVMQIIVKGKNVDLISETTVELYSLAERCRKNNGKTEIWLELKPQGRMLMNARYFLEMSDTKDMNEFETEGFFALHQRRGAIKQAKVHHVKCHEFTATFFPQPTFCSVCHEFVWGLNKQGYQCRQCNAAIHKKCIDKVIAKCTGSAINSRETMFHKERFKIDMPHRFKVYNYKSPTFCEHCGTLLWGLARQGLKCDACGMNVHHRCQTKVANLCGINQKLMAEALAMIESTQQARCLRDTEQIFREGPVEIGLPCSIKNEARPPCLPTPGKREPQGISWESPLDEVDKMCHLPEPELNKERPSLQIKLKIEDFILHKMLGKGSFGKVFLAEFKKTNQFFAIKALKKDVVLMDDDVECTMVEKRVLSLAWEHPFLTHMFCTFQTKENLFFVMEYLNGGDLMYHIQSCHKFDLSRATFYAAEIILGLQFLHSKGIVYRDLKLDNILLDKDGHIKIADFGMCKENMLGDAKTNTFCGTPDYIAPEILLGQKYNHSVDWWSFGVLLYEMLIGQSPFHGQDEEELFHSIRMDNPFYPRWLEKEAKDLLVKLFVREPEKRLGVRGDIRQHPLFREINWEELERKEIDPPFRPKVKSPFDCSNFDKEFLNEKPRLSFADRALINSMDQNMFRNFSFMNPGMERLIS

Row | IC50 [nM] | Structure (SMILES)
1 | 243 | COc1ccc(CN(C)C)cc1-c1sc2ncc(C#N)c(Nc3ccc4[nH]ccc4c3C)c2c1C [Compound 459, 2-{5-[(dimethylamino)methyl]-2-methoxyphenyl}-3-methyl-4-[(4-methyl-1H-indol-5-yl)amino]thieno[2,3-b]pyridine-5-carbonitrile]
2 | 61 | Cc1c(Nc2c(C#N)cnc3sc(-c4ccc(CN(C)C)cc4)c(C)c23)ccc2[nH]ccc12 [Compound 460, 2-{4-[(dimethylamino)methyl]phenyl}-3-methyl-4-[(4-methyl-1H-indol-5-yl)amino]thieno[2,3-b]pyridine-5-carbonitrile]
3 | 6 | COc1ccc(CN2CCN(C)CC2)cc1-c1cc2c(Nc3ccc4[nH]ccc4c3C)c(C#N)cnc2s1 [Compound 461, 2-{2-methoxy-5-[(4-methylpiperazin-1-yl)methyl]phenyl}-4-[(4-methyl-1H-indol-5-yl)amino]thieno[2,3-b]pyridine-5-carbonitrile]
4 | 83 | Cc1c(Nc2c(C#N)cnc3sc(-c4cncc(CN(C)C)c4)cc23)ccc2[nH]ccc12 [Compound 462, 2-{5-[(dimethylamino)methyl]pyridin-3-yl}-4-[(4-methyl-1H-indol-5-yl)amino]thieno[2,3-b]pyridine-5-carbonitrile]
5 | 14 | Cc1c(Nc2c(C#N)cnc3sc(-c4cc(CN(C)C)ccc4F)cc23)ccc2[nH]ccc12 [Compound 463, 2-{5-[(dimethylamino)methyl]-2-fluorophenyl}-4-[(4-methyl-1H-indol-5-yl)amino]thieno[2,3-b]pyridine-5-carbonitrile]
6 | 77 | CN(C)Cc1cscc1-c1cc2c(Nc3ccc4[nH]ccc4c3)c(C#N)cnc2s1 [Compound 464, 2-{4-[(dimethylamino)methyl]-3-thienyl}-4-(1H-indol-5-ylamino)thieno[2,3-b]pyridine-5-carbonitrile]
7 | 49 | CN(C)Cc1ccc2sc(-c3cc4c(Nc5ccc6[nH]ccc6c5)c(C#N)cnc4s3)cc2c1 [Compound 465, 2-{5-[(dimethylamino)methyl]-1-benzothien-2-yl}-4-(1H-indol-5-ylamino)thieno[2,3-b]pyridine-5-carbonitrile]
8 | 64 | Cc1c(Nc2c(C#N)cnc3sc(-c4cc(CN(C)C)cc(OC(C)C)c4)cc23)ccc2[nH]ccc12 [Compound 466, 2-{3-[(dimethylamino)methyl]-5-isopropoxyphenyl}-4-[(4-methyl-1H-indol-5-yl)amino]thieno[2,3-b]pyridine-5-carbonitrile]
9 | 171 | Cc1c(Nc2c(C#N)cnc3sc(-c4cc5cc(CN(C)C)ccc5s4)cc23)ccc2[nH]ccc12 [Compound 467, 2-{5-[(dimethylamino)methyl]-1-benzothien-2-yl}-4-[(4-methyl-1H-indol-5-yl)amino]thieno[2,3-b]pyridine-5-carbonitrile]
10 | 16 | Cc1c(Nc2c(C#N)cnc3sc(-c4csc(CN(C)C)c4)cc23)ccc2[nH]ccc12 [Compound 468, 2-{5-[(dimethylamino)methyl]-3-thienyl}-4-[(4-methyl-1H-indol-5-yl)amino]thieno[2,3-b]pyridine-5-carbonitrile]
11 | 151 | Cc1c(Nc2c(C#N)cnc3sc(-c4ccccc4CNCCCO)cc23)ccc2[nH]ccc12 [Compound 469, 2-(2-{[(3-hydroxypropyl)amino]methyl}phenyl)-4-[(4-methyl-1H-indol-5-yl)amino]thieno[2,3-b]pyridine-5-carbonitrile]
12 | 57 | Cc1c(Nc2c(C#N)cnc3sc(-c4ccccc4CNCCO)cc23)ccc2[nH]ccc12 [Compound 470, 2-(2-{[(2-hydroxyethyl)amino]methyl}phenyl)-4-[(4-methyl-1H-indol-5-yl)amino]thieno[2,3-b]pyridine-5-carbonitrile]
13 | 143 | N#Cc1cnc2sc(C3=CCNCC3)cc2c1Nc1cccc2[nH]ccc12 [Compound 473, 4-(1H-indol-4-ylamino)-2-(1,2,3,6-tetrahydropyridin-4-yl)thieno[2,3-b]pyridine-5-carbonitrile]
14 | 10 | Cc1c(Nc2c(C#N)cnc3sc(C4=CCNCC4)cc23)ccc2[nH]ccc12 [Compound 474, 4-[(4-methyl-1H-indol-5-yl)amino]-2-(1,2,3,6-tetrahydropyridin-4-yl)thieno[2,3-b]pyridine-5-carbonitrile]
15 | 153 | Cc1c(Nc2c(C#N)cnc3sc(C4=CCN(Cc5ccccc5)CC4)cc23)ccc2[nH]ccc12 [Compound 476, 2-(1-benzyl-1,2,3,6-tetrahydropyridin-4-yl)-4-[(4-methyl-1H-indol-5-yl)amino]thieno[2,3-b]pyridine-5-carbonitrile]
16 | 70 | Cc1c(Nc2c(C#N)cnc3sc(C4CCNCC4)cc23)ccc2[nH]ccc12 [Compound 478, 4-[(4-methyl-1H-indol-5-yl)amino]-2-piperidin-4-ylthieno[2,3-b]pyridine-5-carbonitrile]
17 | 1970 | Cc1c(Nc2c(C#N)cnc3sc(C4CCN(Cc5ccccc5)C4)cc23)ccc2[nH]ccc12 (stereo not drawn) [Compound 479, 2-(1-benzylpyrrolidin-3-yl)-4-[(4-methyl-1H-indol-5-yl)amino]thieno[2,3-b]pyridine-5-carbonitrile]

Row | IC50 [nM] | Structure (SMILES)
18 | 93 | Cc1c(Nc2c(C#N)cnc3sc(-c4cccc(OC[C@@H](C)O)c4)cc23)ccc2[nH]ccc12 [Compound 482, 2-(3-{[(2R)-2-hydroxypropyl]-oxy}phenyl)-4-[(4-methyl-1H-indol-5-yl)amino]thieno[2,3-b]pyridine-5-carbonitrile]
19 | 59 | Cc1c(Nc2c(C#N)cnc3sc(-c4cccc(OC[C@H](C)O)c4)cc23)ccc2[nH]ccc12 [Compound 483, 2-(3-{[(2S)-2-hydroxypropyl]-oxy}phenyl)-4-[(4-methyl-1H-indol-5-yl)amino]thieno[2,3-b]pyridine-5-carbonitrile]
20 | 17 | Cc1c(Nc2c(C#N)cnc3sc(-c4cccc(OC[C@H](O)CO)c4)cc23)ccc2[nH]ccc12 [Compound 484, 2-(3-{[(2R)-2,3-Dihydroxypropyl]-oxy}phenyl)-4-[(4-methyl-1H-indol-5-yl)amino]thieno[2,3-b]pyridine-5-carbonitrile]
21 | 40 | Cc1c(Nc2c(C#N)cnc3sc(-c4cccc(OC[C@@H](O)CO)c4)cc23)ccc2[nH]ccc12 [Compound 485, 2-(3-{[(2S)-2,3-Dihydroxypropyl]-oxy}phenyl)-4-[(4-methyl-1H-indol-5-yl)amino]thieno[2,3-b]pyridine-5-carbonitrile]
22 | 70 | Cc1c(Nc2c(C#N)cnc3sc(-c4ccc(OC[C@H](O)CO)cc4)cc23)ccc2[nH]ccc12 [Compound 486, 2-(4-{[(2R)-2,3-dihydroxypropyl]-oxy}phenyl)-4-[(4-methyl-1H-indol-5-yl)amino]thieno[2,3-b]pyridine-5-carbonitrile]
23 | 41 | Cc1c(Nc2c(C#N)cnc3sc(-c4ccc(OC[C@@H](O)CO)cc4)cc23)ccc2[nH]ccc12 [Compound 487, 2-(4-{[(2S)-2,3-dihydroxypropyl]-oxy}phenyl)-4-[(4-methyl-1H-indol-5-yl)amino]thieno[2,3-b]pyridine-5-carbonitrile]
24 | 200 | Cc1c(Nc2c(C#N)cnc3sc(-c4ccc(OC[C@H](C)O)cc4)cc23)ccc2[nH]ccc12 [Compound 488, 2-(4-{[(2S)-2-hydroxypropyl]-oxy}phenyl)-4-[(4-methyl-1H-indol-5-yl)amino]thieno[2,3-b]pyridine-5-carbonitrile]
25 | 175 | Cc1c(Nc2c(C#N)cnc3sc(-c4ccc(OC[C@@H](C)O)cc4)cc23)ccc2[nH]ccc12 [Compound 489, 2-(4-{[(2R)-2-hydroxypropyl]-oxy}phenyl)-4-[(4-methyl-1H-indol-5-yl)amino]thieno[2,3-b]pyridine-5-carbonitrile]
26 | 105 | Cc1c(Nc2c(C#N)cnc3sc(-c4ccccc4OC[C@@H](C)O)cc23)ccc2[nH]ccc12 [Compound 490, 2-(2-{[(2R)-2-hydroxypropyl]-oxy}phenyl)-4-[(4-methyl-1H-indol-5-yl)amino]thieno[2,3-b]pyridine-5-carbonitrile]
27 | 177 | Cc1c(Nc2c(C#N)cnc3sc(-c4ccccc4OC[C@H](C)O)cc23)ccc2[nH]ccc12 [Compound 491, 2-(2-{[(2S)-2-hydroxypropyl]-oxy}phenyl)-4-[(4-methyl-1H-indol-5-yl)amino]thieno[2,3-b]pyridine-5-carbonitrile]
28 | 50 | Cc1c(Nc2c(C#N)cnc3sc(-c4ccccc4OC[C@@H](O)CO)cc23)ccc2[nH]ccc12 [Compound 492, 2-(2-{[(2S)-2,3-dihydroxypropyl]-oxy}phenyl)-4-[(4-methyl-1H-indol-5-yl)amino]thieno[2,3-b]pyridine-5-carbonitrile]
29 | 45 | Cc1c(Nc2c(C#N)cnc3sc(-c4ccccc4OC[C@H](O)CO)cc23)ccc2[nH]ccc12 [Compound 493, 2-(2-{[(2R)-2,3-dihydroxypropyl]-oxy}phenyl)-4-[(4-methyl-1H-indol-5-yl)amino]thieno[2,3-b]pyridine-5-carbonitrile]
30 | 3 | CN(C)Cc1cccc(-c2cc3c(Nc4cnc5[nH]ccc5c4Cl)c(C#N)cnc3s2)c1 [Compound 498, 4-(4-chloro-1H-pyrrolo[2,3-b]pyridin-5-ylamino)-2-(3-((dimethylamino)methyl)phenyl)thieno[2,3-b]pyridine-5-carbonitrile]
31 | 1320 | N#Cc1c[n+]([O-])c2sccc2c1Nc1ccc2[nH]ccc2c1 [Compound 499, 4-(1H-indol-5-ylamino)thieno[2,3-b]pyridine-5-carbonitrile-7-oxide]
32 | 1100 | CCOC(=O)c1cc2c(Nc3ccc4[nH]ccc4c3)c(C#N)cnc2s1 [Compound 502, ethyl 5-cyano-4-(1H-indol-5-ylamino)thieno[2,3-b]pyridine-2-carboxylate]
33 | 11 | Cc1c(Nc2c(C#N)cnc3scc(C(C)C)c23)ccc2[nH]ccc12 [Compound 503, 3-isopropyl-4-[(4-methyl-1H-indol-5-yl)amino]thieno[2,3-b]pyridine-5-carbonitrile]
